Data on 32 compounds can be found in publication PMC10230575 (Bioorganic & medicinal chemistry letters, 2022).

Substitutions are numbered along the chain they refer to.

Chain of Maxi-K (Slo1 α1/β3) (Q12791 whole entry, species assumed): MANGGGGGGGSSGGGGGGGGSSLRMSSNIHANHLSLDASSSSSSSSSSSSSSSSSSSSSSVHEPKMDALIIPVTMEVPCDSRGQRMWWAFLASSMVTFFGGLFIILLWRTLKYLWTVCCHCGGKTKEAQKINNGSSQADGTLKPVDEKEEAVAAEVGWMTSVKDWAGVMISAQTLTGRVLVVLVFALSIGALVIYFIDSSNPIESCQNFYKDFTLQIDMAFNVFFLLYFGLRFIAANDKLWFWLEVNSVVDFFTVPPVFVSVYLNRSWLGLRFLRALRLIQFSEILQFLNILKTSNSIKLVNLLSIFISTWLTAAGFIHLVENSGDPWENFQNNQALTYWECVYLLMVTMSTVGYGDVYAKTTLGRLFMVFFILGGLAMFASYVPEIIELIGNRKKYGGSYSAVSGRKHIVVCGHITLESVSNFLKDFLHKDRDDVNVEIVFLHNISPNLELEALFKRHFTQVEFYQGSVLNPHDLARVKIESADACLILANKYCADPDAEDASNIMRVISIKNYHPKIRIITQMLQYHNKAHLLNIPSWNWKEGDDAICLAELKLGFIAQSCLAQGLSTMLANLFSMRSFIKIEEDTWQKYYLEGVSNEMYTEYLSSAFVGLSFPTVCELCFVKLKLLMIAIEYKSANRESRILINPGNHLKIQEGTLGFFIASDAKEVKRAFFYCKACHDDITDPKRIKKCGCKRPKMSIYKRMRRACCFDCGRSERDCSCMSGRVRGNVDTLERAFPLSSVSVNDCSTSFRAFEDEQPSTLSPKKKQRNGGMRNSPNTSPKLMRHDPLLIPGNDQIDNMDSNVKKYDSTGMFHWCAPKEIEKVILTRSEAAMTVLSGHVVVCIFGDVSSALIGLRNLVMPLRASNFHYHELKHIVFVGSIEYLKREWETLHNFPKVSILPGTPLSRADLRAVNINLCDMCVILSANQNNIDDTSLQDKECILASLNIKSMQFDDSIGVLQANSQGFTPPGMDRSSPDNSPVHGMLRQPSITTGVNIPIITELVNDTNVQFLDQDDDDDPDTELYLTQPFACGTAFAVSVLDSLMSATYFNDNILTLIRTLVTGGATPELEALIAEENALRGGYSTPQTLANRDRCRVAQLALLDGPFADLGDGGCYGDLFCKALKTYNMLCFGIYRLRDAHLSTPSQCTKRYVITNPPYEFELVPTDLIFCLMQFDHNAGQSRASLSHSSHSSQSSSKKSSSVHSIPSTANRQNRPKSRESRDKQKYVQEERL
Chain of Maxi-K (Slo1 α1/β3) (Q9NPA1 whole entry partner, species assumed): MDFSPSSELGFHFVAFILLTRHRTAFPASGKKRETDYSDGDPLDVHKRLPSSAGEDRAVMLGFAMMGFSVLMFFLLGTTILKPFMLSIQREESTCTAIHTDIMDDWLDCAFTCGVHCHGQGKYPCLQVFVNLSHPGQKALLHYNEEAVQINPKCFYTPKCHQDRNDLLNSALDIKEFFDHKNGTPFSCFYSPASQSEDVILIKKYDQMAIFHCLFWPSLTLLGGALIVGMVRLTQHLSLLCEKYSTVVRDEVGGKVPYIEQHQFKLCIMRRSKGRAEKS

One assay concerns human wild-type (WT) Slack channels.
Assay: not given
Conditions: whole-cell patch clamp, HEK-293, human WT Slack; cited from earlier work.
A word on the IC50: it is the concentration needed to halve the response being measured. As for `Cc1cccc(CC(=O)Nc2cnn(-c3cccc(C(=O)NCc4ccccc4-n4cncn4)c3)c2)c1` [Compound 1], the IC50 was 3.2 µM.

In the next assay the target is T1, wild-type human (WT) Slack (Homo sapiens, UniProt Q5JUK3).
T1 sequence (Q5JUK3 1-1235 isoform Q5JUK3-3): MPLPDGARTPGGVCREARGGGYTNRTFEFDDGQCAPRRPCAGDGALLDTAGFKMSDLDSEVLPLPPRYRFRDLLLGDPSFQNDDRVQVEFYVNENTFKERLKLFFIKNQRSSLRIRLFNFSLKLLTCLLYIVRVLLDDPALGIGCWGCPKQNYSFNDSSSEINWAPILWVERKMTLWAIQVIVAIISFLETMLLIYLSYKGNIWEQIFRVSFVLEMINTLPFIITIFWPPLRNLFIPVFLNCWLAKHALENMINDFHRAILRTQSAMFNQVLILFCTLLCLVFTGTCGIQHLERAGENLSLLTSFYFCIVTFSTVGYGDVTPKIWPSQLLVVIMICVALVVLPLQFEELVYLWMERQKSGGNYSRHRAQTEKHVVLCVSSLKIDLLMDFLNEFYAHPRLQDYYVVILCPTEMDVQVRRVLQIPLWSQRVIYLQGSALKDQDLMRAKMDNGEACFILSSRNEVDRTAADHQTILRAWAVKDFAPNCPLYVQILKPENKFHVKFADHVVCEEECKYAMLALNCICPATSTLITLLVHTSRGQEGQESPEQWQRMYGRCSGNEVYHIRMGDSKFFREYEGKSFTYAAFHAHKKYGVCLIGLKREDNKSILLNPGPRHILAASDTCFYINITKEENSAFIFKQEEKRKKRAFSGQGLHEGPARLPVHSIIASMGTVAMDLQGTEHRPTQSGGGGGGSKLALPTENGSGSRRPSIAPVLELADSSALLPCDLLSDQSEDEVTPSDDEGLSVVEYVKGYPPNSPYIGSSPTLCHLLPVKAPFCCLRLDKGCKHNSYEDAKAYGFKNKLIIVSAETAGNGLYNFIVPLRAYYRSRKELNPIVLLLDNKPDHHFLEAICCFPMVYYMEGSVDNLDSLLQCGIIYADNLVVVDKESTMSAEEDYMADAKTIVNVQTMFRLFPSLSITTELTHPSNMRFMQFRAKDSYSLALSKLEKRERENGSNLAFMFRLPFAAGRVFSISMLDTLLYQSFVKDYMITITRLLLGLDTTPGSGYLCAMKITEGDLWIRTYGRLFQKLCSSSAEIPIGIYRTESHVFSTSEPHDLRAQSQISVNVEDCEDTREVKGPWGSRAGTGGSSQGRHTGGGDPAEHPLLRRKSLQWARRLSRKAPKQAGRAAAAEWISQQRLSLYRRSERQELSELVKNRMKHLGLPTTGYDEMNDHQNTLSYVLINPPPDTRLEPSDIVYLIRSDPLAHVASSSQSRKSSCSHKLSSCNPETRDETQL
The assay is described as follows: Tl+ flux assay in HEK-293 cells stably expressing WT Slack. It is filed as cell-based. The note with it: Table 1; CRC, Tl+ flux, HEK-293 WT Slack; Mode Inh.
For the compound `COc1ccc(Cl)cc1NC(=O)CN1CCN(S(=O)(=O)N2CCC(C)CC2)CC1` [Compound 4], the “IC50 / EC50 (IC50, inhibitors)” value was 2.4 µM.

Staying with this assay, now noted: Table 3; no mode assigned.
In the case of `COc1ccc(Cl)cc1NC(=O)CN1CCN(S(=O)(=O)N2CCN(S(=O)(=O)N3CCOCC3)CC2)CC1` [Compound 44], the “IC50 / EC50 (result in words)” value was “inactive”.

Take `COc1ccc(Cl)cc1NC(=O)CN1CCN(S(=O)(=O)N2CCN(S(=O)(=O)C3CCCCC3)CC2)CC1` [Compound 45]: the “IC50 / EC50 (result in words)” value was “inactive”.

With `COc1ccc(Cl)cc1NC(=O)CN1CCN(S(=O)(=O)N2CCN(S(=O)(=O)N3CCCCC3)CC2)CC1` [Compound 43], the “IC50 / EC50 (result in words)” value is “inactive”.

With `COc1ccc(Cl)cc1NC(=O)CN1CCN(S(=O)(=O)N2CCN(S(=O)(=O)c3ccc(C)cc3)CC2)CC1` [Compound 47], the “IC50 / EC50 (result in words)” value was “inactive”.

Staying with this assay, now noted: running text and footnotes; WT Slack Tl+ flux.
Regarding `COc1ccc(Cl)cc1NC(=O)N1CC2(CCN(S(=O)(=O)N3CCC(C)CC3)CC2)C1` [Compound 88], the “Slack activity profile in words” value is on record as “weak activators”.

As to `COc1ccc(Cl)cc1NC(=O)N1CCCN(S(=O)(=O)N2CCC(C)CC2)CC1` [Compound 92], the “Slack activity profile in words” value is “moderately potent”.

Consider `COc1ccc(Cl)cc1NC(=O)N1CC2(C1)CN(S(=O)(=O)N1CCC(C)CC1)C2` [Compound 90], for which the “Slack activity profile in words” value was “weak inhibitor”.

Regarding `Cc1cccc(NC(=O)CN2CCN(S(=O)(=O)N3CCC(C)CC3)CC2)c1` [Compound 19], the “Slack activity profile in words” value is recorded as “mixed profile”.

Consider `COc1ccc(Cl)cc1NC(=O)CN1CCN(S(=O)(=O)N2CCN(C(=O)N3CCCCC3)CC2)CC1` [Compound 51], for which the “Slack activity profile in words” value is on record as “weak activators”.

With `Cc1ccccc1NC(=O)CN1CCN(S(=O)(=O)N2CCC(C)CC2)CC1` [Compound 18], the “Slack activity profile in words” value is on record as “mixed profile”.

With `COc1ccccc1NC(=O)CN1CCN(S(=O)(=O)N2CCC(C)CC2)CC1` [Compound 21], the “Slack activity profile in words” value is on record as “maintained the inhibitory profile”.

Take `CC1CCN(S(=O)(=O)N2CCN(CC(=O)Nc3cc(Cl)ccc3F)CC2)CC1` [Compound 29]: the “Slack activity profile in words” value is “not effective”.

Turning to `CC1CCN(S(=O)(=O)N2CCN(CC(=O)Nc3cc(Cl)ccc3Cl)CC2)CC1` [Compound 30], the “Slack activity profile in words” value is on record as “not effective”.

Regarding `COc1ccc(Cl)cc1NC(=O)CN1CCN(S(=O)(=O)N2CCN(C(=O)N3CCC(C(C)C)CC3)CC2)CC1` [Compound 53], the “Slack activity profile in words” value is reported as “mixed profile”.

Consider `COc1ccc(Cl)cc1NC(=O)CN1CCN(S(=O)(=O)N2CCN(C(=O)N3CCCCCC3)CC2)CC1` [Compound 55], for which the “Slack activity profile in words” value is listed as “weak activators”.

Consider `COc1ccc(Cl)cc1NC(=O)CN1CCN(S(=O)(=O)N2CCN(S(=O)(=O)N3CCC(F)(F)C3)CC2)CC1` [Compound 50], for which the “Slack activity profile in words” value is recorded as “weak activators”.

For `COc1cccc(NC(=O)CN2CCN(S(=O)(=O)N3CCC(C)CC3)CC2)c1` [Compound 22], the “Slack activity profile in words” value was “mixed profile”.

`CC1CCN(S(=O)(=O)N2CCN(CC(=O)Nc3ccccc3Cl)CC2)CC1` [Compound 15]: the “Slack activity profile in words” value was “mixed profile”.

For `Cc1ccc(Cl)cc1NC(=O)CN1CCN(S(=O)(=O)N2CCC(C)CC2)CC1` [Compound 31], the “Slack activity profile in words” value was “not effective”.

`COc1ccc(Cl)cc1NC(=O)N1C[C@@H]2CN(S(=O)(=O)N3CCC(C)CC3)C[C@@H]2C1` [Compound 91]: the “Slack activity profile in words” value is listed as “devoid of activity”.

On to `COc1ccc(Cl)cc1NC(=O)CN1CCN(S(=O)(=O)N2CCC(C)CC2)[C@H](C)C1` [Compound 86], for which the “Slack activity profile in words” value was “significantly reduced potency”.

`COc1ccc(Cl)cc1NC(=O)CN1CCN(S(=O)(=O)N2CCC(C)CC2)C[C@@H]1C` [Compound 71]: the “Slack activity profile in words” value is “well tolerated”.

With `COc1ccc(Cl)cc1NC(=O)CN(C)CCN(C)S(=O)(=O)N1CCC(C)CC1` [Compound 81], the “Slack activity profile in words” value is reported as “retained inhibitory activity but exhibited reduced potency”.

Consider `COc1ccc(Cl)cc1NC(=O)CN1CCN(S(=O)(=O)N2CCC(C)CC2)C[C@H]1C` [Compound 87], for which the “Slack activity profile in words” value is on record as “equipotent to hit compound 4”.

Consider `CCCC1CCN(C(=O)N2CCN(S(=O)(=O)N3CCN(CC(=O)Nc4cc(Cl)ccc4OC)CC3)CC2)CC1` [Compound 52], for which the “Slack activity profile in words” value was “weak inhibitor”.

Take `COc1ccc(Cl)cc1NC(=O)CN1CCN(S(=O)(=O)N2CCC(C)CC2)[C@@H](C)C1` [Compound 68]: the “Slack activity profile in words” value is given as “significantly reduced potency”.

A further assay has as its system mouse model of Kcnt1 GOF.
Assay: not given
The note with it: orally available; cited from earlier work.
Take `C[C@H](NC(=O)c1cc(C(F)(F)F)nn1C)c1nc(-c2ccnc(C(F)(F)F)c2)no1` [Compound 3]: the EEG phenotype entry is “normalizes the EEG phenotype”.

A further assay concerns the target Maxi-K (Slo1 α1/β3) (Homo sapiens, UniProt Q12791). Kind of assay: Tl+ flux assay in HEK-293 cells expressing Maxi-K. The format is cell-based. The note with it: 30 µM test compound, % of maximum response for paxilline.
Regarding `COc1ccc(Cl)cc1NC(=O)CN1CCN(S(=O)(=O)N2CCC(C)CC2)CC1` [Compound 4], the “Maxi-K (Slo1 α1/β3) Efficacy” value was “inactive”.

In the case of `COc1ccc(Cl)cc1NC(=O)[C@H](C)N1CCN(S(=O)(=O)N2CCC(C(F)(F)F)CC2)CC1` [Compound 61], the “Maxi-K (Slo1 α1/β3) Efficacy” value was “inactive”.

The assay is the same for the next values; noted with them: CRC, Tl+ flux, HEK-293 expressing Maxi-K.
Regarding `COc1ccc(Cl)cc1NC(=O)CN1CCN(S(=O)(=O)N2CCC(C)CC2)CC1` [Compound 4], the “Maxi-K (Slo1 α1/β3) IC50” value was “inactive”.

On to `COc1ccc(Cl)cc1NC(=O)[C@H](C)N1CCN(S(=O)(=O)N2CCC(C(F)(F)F)CC2)CC1` [Compound 61], for which the “Maxi-K (Slo1 α1/β3) IC50” value was “inactive”.

The same assay, now with this note: Tl+ flux.
`COc1ccc(Cl)cc1NC(=O)[C@H](C)N1CCN(S(=O)(=O)N2CCC(C(F)(F)F)CC2)CC1` [Compound 61]: the “Maxi-K inhibition in words” value was “inactive”.

With `COc1ccc(C(F)(F)F)cc1NC(=O)CN1CCN(S(=O)(=O)N2CCC(C)CC2)CC1` [Compound 27], the “Maxi-K inhibition in words” value is recorded as “weak inhibition”.

With `COc1ccc(Cl)cc1NC(=O)CN1CCN(S(=O)(=O)N2CCC(C)CC2)C[C@H]1C` [Compound 87], the “Maxi-K inhibition in words” value was “weak inhibition”.

The subject of the next assay is cortical neuronal culture.
Assay: not given
Conditions: overexcited, spontaneously firing cortical neuronal culture; cited from earlier work.
Take `COc1ccc(Cl)cc1NC(=O)CN1CCN(S(=O)(=O)N2CCC(C)CC2)CC1` [Compound 4]: the firing rate entry is “decreased the firing rate”.

For a further assay, the target named is T2, A934T Slack (Homo sapiens, UniProt Q5JUK3, A915T).
T2 sequence (Q5JUK3 1-1235 isoform Q5JUK3-3 A934T): T1 sequence (Q5JUK3 1-1235 isoform Q5JUK3-3) with A934T
The assay is described as follows: Tl+ flux assay in HEK-293 cells expressing A934T Slack. The note with it: Table 6; 30 µM test compound, % of maximum response for VU0606170.
With `COc1ccc(F)cc1NC(=O)CN1CCN(S(=O)(=O)N2CCC(C)CC2)CC1` [Compound 24], the “A934T Efficacy” value is given as 100%.
